Data on 1 compound can be found in patent US10363239B2, “Method for inhibiting growth of cancer cells” (Pain Therapeutics, Inc., priority 2013, dated 2019).

Assay [1] concerns pS2152FLNA, FLNA-associated PTEN and PP2A in pancreatic cancer MiaPaCa2 cells. Put plainly: pS2152FLNA and FLNA-associated PTEN and PP2A in anti-FLNA immunoprecipitate (Western blotting). The format is cell-based, human. The conditions noted are these: 0.1-5 nM; 4 days. As for the experimental part: The effect of contact with Compound C0105 on the levels of pS^2152FLNA and FLNA-associated phosphatases, PTEN and PP2A subclasses was determined in MiaPaCa2 and HPECs. Cells were contacted with vehicle and 0.1-5 nM Compound C0105 for 4 days. Cells were washed, solubilized and the cell lysate derived was immunoprecipitated with anti-FLNA. The levels of […] and FLNA-associated phosphatases, PTEN and PP2A subclasses in the anti-FLNA immunoprecipitate were determined by Western blotting. The density of protein bands was quantified by densitometric scan. […] Data are expressed as mean±S.E.M. of ratios (FIGS. 27C, 27E and 27G) and percentage inhibition (FIGS. 27D, 27F and 27H). […] N=4. **p<0.05, *p<0.01 compared to vehicle (open bars). […]
(§1) The cell lysates were diluted 5-fold with immunoprecipitation buffer and immunoprecipitated with anti-FLNA, -Akt, -mTOR and -ERK2 as described previously [Talbot et al., J Clin Inv 122(4):1-23 (2012); Wang et al., J Neurosci 32(29):9773-9784 (2012)]. The levels of FLNA linkages, activated phosphorylated Akt (pS^473 and pT^308), phosphorylated mTOR (pS^2448) and phosphorylated ERK2 (pY/pT) were determined in anti-FLNA, -Akt, -mTOR and -ERK2 immunoprecipitates by Western blotting with appropriate antibodies directed against PTEN, PP2A, K-RAS, ras-GAP (FLNA linkages), pS^473Akt, pT^308Akt, pS^2448mTOR and pY/pT ERK2 (activation of Akt, mTOR and ERK2).
Background: In western blotting, separated proteins are transferred to a membrane and probed.

Assay [2] concerns the target T1, FLNA from MiaPaCa2 cells (Homo sapiens, UniProt P21333).
T1 construct: FLNA was purified separately from MiaPaCa2 cells and from HPECs; endogenous in cells; host or cells: MiaPaCa2 (MIA PaCa-2, ATCC CRL-1420)
Put plainly: Isoelectric focusing of purified FLNA (FLNA conformation). The format is cell-based. Conditions: 1 nM; 4 days. As for the experimental part:
(§2) FIGS. 33A and 33B show isoelectric focusing result data (FIG. 33A) for FLNA separately isolated from HPEC and MiaPaCa2 cells after four days of incubation (contact) of those cells with medium alone or medium plus 1 nM Compound C0105. […] N=4, *p<0.01.
(§3) To determine whether the conformation of FLNA is different in cancer and primary normal cells and whether Compound C0105 affects FLNA conformation, FLNA was purified from cancer and primary cells after incubation with vehicle or 1 nM Compound C0105 for 4 days. Cells were washed with PBS, scraped, sonicated for 10 seconds and solubilized using 0.5% digitonin/0.2% sodium cholate/0.5% NP-40 at 4° C. with end-over-end rotation for 1 hour. Following centrifugation to remove insoluble debris, the obtained lysate was treated with 1% SDS for 1 minute to dissociate the […] proteins, diluted 10-fold with immunoprecipitation buffer, and immunopurified with immobilized anti-FLNA. The resultant FLNA was eluted using 200 μl antigen-elution buffer (Thermo), neutralized immediately with 100 mM Tris HCl (pH9.0), diluted to 500 μl with 50 mM Tris HCl, pH7.5, and passed through a 100 kD cut-off filter.
(§4) The purified FLNA was suspended in the 100 μl isoelectric focusing sample buffer. […]

The target in assay [3] is T2, FLNA from HPECs (Homo sapiens, UniProt P21333).
T2 construct: FLNA was purified separately from MiaPaCa2 cells and from HPECs; endogenous in cells; host or cells: primary human pancreatic epithelial cells (HPEC)
The assay is described as above. The assay is classed as cell-based. Conditions: 1 nM; 4 days. As for the experimental part:
as §2, §3, §4

For assay [4], the system named is melanoma cells. Nature of the assay: [3H]thymidine incorporation. The format is cell-based, human. The conditions noted are these: 0.1-5 nM; 96 hours. As for the experimental part:
(§5) The effect of Compound C0105 on cell proliferation was determined by the level of [^3H]thymidine incorporation in glioblastoma, melanoma and small-cell lung carcinoma cells. Cells contacted with vehicle or 0.1-5 nM Compound C0105 were incubated with 5 μCi/ml of [^3H]thymidine for 96-hours. Cells were washed and the cell content of [^3H]thymidine was quantified using scintillation spectrometry. […] N=4. **p<0.05, *p<0.01 compared to vehicle (open bars).
(In general: Dividing cells build labelled thymidine or BrdU into new DNA.)

Assay [5] concerns glioblastoma cells. Put plainly: [3H]thymidine incorporation. The assay is classed as cell-based, human. The conditions noted are these: 0.1-5 nM; 96 hours. As for the experimental part: as §5
Assay [6] concerns small-cell lung carcinoma cells. Nature of the assay: [3H]thymidine incorporation. The format is cell-based, human. The conditions noted are these: 0.1-5 nM; 96 hours. As for the experimental part:
as §5

Assay [7] deals with pS2448mTOR, pS473Akt, pY/pT-ERK2 in small-cell lung carcinoma cells. Nature of the assay: Activated (phosphorylated) mTOR, Akt and ERK2 levels (immunoprecipitation, Western blotting). The assay is classed as cell-based, human. The conditions noted are these: 0.1-5 nM; 4 days. As for the experimental part: (§6) Cells were treated with vehicle and 0.1-5 nM C0105 for 4 days. Cells were washed, solubilized and the resultant cell lysate was immunoprecipitated with anti-mTOR, -Akt or -ERK2. The levels of pS^2448mTOR, pS^473Akt, pY/pTERK2 in the respective anti-mTOR, -Akt, and -ERK2 immunoprecipitates were determined by Western blotting. […] The density of protein bands was measured by densitometric scanning. […] N=4. *p<0.01 compared to vehicle (open bars). […]
as §1

Assay [8] relates to pS2448mTOR, pS473Akt, pY/pT-ERK2 in primary lung fibroblast cells. The assay is described as above. The conditions noted are these: 0.1-5 nM; 4 days. The assay is classed as cell-based, human. As for the experimental part:
as §6, §1

Each structure is given as a SMILES string.

T1 sequence (P21333 whole entry): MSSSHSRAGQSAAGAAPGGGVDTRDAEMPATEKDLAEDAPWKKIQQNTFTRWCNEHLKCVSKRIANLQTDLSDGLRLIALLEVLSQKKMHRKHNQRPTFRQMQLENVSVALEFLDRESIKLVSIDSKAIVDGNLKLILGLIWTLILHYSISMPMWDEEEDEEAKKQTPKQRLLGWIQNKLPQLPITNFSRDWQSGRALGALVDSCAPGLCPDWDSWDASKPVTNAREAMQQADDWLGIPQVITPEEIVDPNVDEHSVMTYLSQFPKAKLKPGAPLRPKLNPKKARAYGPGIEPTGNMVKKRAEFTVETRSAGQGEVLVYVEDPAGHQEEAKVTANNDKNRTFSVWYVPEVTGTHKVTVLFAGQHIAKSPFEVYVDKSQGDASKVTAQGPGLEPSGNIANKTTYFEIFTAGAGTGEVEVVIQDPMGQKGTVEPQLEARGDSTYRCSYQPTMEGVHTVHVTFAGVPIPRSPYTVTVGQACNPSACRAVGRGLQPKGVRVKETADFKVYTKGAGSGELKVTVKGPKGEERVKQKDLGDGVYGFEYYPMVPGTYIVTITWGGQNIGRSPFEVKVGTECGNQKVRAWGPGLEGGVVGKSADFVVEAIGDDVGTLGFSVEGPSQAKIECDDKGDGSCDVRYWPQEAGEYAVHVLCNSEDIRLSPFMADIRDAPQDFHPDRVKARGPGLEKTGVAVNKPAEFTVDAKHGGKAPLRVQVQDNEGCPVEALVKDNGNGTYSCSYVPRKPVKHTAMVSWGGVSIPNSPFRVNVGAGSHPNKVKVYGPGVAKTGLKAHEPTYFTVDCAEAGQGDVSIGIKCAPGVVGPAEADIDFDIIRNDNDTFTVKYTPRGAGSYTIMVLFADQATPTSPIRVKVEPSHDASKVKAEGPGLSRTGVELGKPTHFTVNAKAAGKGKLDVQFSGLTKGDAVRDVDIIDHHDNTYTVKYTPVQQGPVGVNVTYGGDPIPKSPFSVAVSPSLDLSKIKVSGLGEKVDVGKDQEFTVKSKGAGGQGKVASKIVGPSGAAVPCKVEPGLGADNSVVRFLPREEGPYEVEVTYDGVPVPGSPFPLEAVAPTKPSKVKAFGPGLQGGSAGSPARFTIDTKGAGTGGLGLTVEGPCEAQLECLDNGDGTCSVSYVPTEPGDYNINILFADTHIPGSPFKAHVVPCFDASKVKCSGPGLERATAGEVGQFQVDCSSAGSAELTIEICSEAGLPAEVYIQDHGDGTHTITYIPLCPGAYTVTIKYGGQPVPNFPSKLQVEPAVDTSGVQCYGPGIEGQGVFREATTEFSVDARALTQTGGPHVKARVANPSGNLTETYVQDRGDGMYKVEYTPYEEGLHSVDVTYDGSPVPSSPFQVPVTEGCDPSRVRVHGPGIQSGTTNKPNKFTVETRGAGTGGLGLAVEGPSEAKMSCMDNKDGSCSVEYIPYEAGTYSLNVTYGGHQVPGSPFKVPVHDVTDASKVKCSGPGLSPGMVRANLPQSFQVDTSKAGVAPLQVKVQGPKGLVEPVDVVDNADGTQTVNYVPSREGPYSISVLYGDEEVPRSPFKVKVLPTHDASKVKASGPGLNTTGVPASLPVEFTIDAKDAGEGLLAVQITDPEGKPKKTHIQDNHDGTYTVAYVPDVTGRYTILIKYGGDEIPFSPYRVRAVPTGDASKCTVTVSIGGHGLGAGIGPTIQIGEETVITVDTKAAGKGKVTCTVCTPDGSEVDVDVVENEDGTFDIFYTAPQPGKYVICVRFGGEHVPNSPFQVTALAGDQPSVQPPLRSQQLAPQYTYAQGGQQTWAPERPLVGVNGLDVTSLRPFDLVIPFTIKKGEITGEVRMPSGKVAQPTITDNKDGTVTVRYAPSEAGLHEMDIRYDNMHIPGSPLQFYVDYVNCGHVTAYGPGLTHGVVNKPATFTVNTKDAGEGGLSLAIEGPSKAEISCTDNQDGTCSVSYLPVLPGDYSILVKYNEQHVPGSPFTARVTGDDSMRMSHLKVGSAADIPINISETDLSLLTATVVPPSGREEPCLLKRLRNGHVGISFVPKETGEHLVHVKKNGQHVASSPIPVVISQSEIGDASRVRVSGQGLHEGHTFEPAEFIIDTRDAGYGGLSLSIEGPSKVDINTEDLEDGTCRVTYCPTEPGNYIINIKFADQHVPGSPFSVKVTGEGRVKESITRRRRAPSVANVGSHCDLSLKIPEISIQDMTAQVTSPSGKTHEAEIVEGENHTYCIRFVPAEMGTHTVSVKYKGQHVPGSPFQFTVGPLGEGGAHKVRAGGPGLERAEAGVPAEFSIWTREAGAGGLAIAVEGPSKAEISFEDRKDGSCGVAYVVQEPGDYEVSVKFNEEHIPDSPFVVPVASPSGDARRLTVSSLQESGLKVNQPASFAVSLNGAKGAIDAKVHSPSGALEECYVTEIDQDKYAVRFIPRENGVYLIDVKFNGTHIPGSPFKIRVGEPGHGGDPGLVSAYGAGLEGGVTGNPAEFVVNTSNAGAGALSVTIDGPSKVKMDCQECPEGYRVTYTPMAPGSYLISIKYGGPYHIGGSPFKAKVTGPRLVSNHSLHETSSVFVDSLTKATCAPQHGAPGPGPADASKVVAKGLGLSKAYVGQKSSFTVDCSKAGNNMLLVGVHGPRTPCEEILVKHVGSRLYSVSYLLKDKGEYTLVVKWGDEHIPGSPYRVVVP
T2 sequence (P21333 whole entry): as above

On to `CN1CCC2(CC1)NCC(=O)N2Cc1ccccc1` [Compound C0105], for which the “FLNA-associated PTEN and PP2A levels” value in assay [1] is “increases FLNA-associated PTEN and PP2A levels”. For the same compound, in assay [1], the pS2152FLNA level result was “reduces pS^2152FLNA”. In assay [2], the “Fraction of FLNA restored to the conformation (pI) present in HPECs” value was “about 75%”. In addition, in assay [3], the “pI of FLNA” value is reported as “no effect on the pI”. For the same compound, the “Cell proliferation by [3H]thymidine incorporation” value is “reduces glioblastoma, melanoma and small-cell lung carcinoma cell proliferation” in assay [4]; “reduces glioblastoma, melanoma and small-cell lung carcinoma cell proliferation” in assay [5]; “reduces glioblastoma, melanoma and small-cell lung carcinoma cell proliferation” in assay [6]. Besides, the “mTOR, Akt and ERK activation (phosphorylated mTOR, Akt and ERK)” value in assay [7] was “robustly reduces mTOR, Akt and ERK activation”; in assay [8], “little effect on mTOR, Akt and ERK activation”.
